According to patent publication US20260345641A1, “COMPOSITIONS AND USES THEREOF” (Algorae Pharmaceuticals Ltd, priority 2023, published 2026):

System: SH-SY5Y cells
Experiment: Gene expression analysis by RNA sequencing in the presence of Aβ
Format: cell-based, human
Conditions: 5 μM, with Aβ
Source text: The SH-S5Y5 neuroblastoma cell line was used for pre-clinical analysis. The SH-S5Y5 cell line is commonly used as a model for neurodegenerative disorders as the cells can be converted to various types of functional neurons by the addition of specific compounds (see, e.g., Xicoy et al., 2017, Molecular Neurodegeneration, 12: 10). In addition, the SH-S5Y5 cell line has been used widely in experimental neurological studies, including analysis of neuronal differentiation, metabolism, and function related to neurodegenerative processes, neurotoxicity and neuroprotection (see, e.g., Datki et al., 2003, Brain Research Bulletin, 62(3): 22-229; and Xie et al., 2010, Chinese Medical Journal, 123(8): 1086-1092).
Total RNA was isolated from cells using TRIzol in accordance with the manufacturer's instructions (Invitrogen, Carlsbad, CA, USA). RNA concentration and quality was assessed using a NanoDrop spectrophotometer. Only samples with a 260/280 ratio of ≥1.8 were used for further analysis.
Messenger RNA (mRNA) was purified from total RNA using poly-T oligo attached magnetic beads. After fragmentation, cDNA synthesis was performed in accordance with the manufacturer's instructions (Illumina, San Diego, CA, USA) to generate a directional and non-directional library. Libraries were checked with Qubit, real-time PCR was performed for quantification, and size distribution detection was performed using the Bioanalyzer. Quantified libraries were pooled and sequenced on an Illumina platform, according to the manufacturer's instructions.
Raw reads were filtered and mapped to human reference genome (GRCh38/hg38) using HISAT2. Differential gene expression analysis was performed using R Package DEG seq2. […] Manual annotation of genes previously associated with specific neurodegenerative disorders and dementias was performed following a text mining analysis.

SMILES: COc1cc2c(cc1OC)C(=O)C(CC1CCN(Cc3ccccc3)CC1)C2 (stereo not shown) [Donepezil]
- ATP13A2 gene expression (control 7.789, P 0.022): 5.931
- TUBB4A gene expression (control 7.889, P 0.013): 12.522
- C19orf12 gene expression (control 8.149, P 0.002): 8.062
- COMT gene expression (control 8.395, P 0.009): 7.242
- CLCN6 gene expression (control 8.460, P 0.007): 9.489
- SLC2A1 gene expression (control 8.472, P 0.018): 9.539
- KIF5A gene expression (control 8.491, P 0.023): 7.978
- MT-TE gene expression (control 8.733, P 0.049): 14.784
- ASTN2 gene expression (control 8.739, P 0.008): 10.467
- GAP43 gene expression (control 8.840, P 0.016): 14.884
- HTRA1 gene expression (control 8.986, P 0.035): 3.452
- GPT2 gene expression (control 9.062, P 0.018): 9.323
- RELN gene expression (control 9.086, P 0.007): 8.830
- MAP2 gene expression (control 9.232, P 0.018): 13.284
- FAR1 gene expression (control 9.502, P 0.001): 9.330
- ULK1 gene expression (control 9.616, P 0.008): 7.435
- MT-TR gene expression (control 9.625, P 0.053): 7.395
- AUH gene expression (control 9.982, P 0.001): 9.689
- UBQLN2 gene expression (control 10.132, P 0.055): 10.681
- TP53 gene expression (control 10.247, P 0.010): 10.184
- RNF216 gene expression (control 10.517, P 0.005): 11.360
- LMNB1 gene expression (control 10.575, P 0.020): 13.789
- SDHA gene expression (control 10.591, P 0.002): 10.690
- CTSF gene expression (control 10.619, P 0.034): 12.207
- PHIP gene expression (control 10.884, P 0.000): 10.131
- NEAT1 gene expression (control 10.972, P 0.010): 8.854
- GSR gene expression (control 10.993, P 0.009): 14.077
- NBEA gene expression (control 11.016, P 0.010): 12.180
- HEXB gene expression (control 11.029, P 0.010): 11.767
- NIPA1 gene expression (control 11.189, P 0.025): 10.862
- PDGFRA gene expression (control 11.237, P 0.009): 11.624
- SORT1 gene expression (control 11.268, P 0.004): 9.054
- DLAT gene expression (control 11.385, P 0.035): 10.390
- CTSA gene expression (control 11.863, P 0.001): 12.014
- AIFM1 gene expression (control 11.948, P 0.026): 10.769
- KIF4A gene expression (control 12.106, P 0.000): 12.317
- PIK3CA gene expression (control 12.209, P 0.057): 9.685
- MT-TM gene expression (control 12.408, P 0.006): 7.334
- PSEN1 gene expression (control 12.549, P 0.033): 10.463
- CST3 gene expression (control 12.563, P 0.049): 14.607
- PNKP gene expression (control 12.578, P 0.015): 13.753
- UBE4A gene expression (control 12.586, P 0.050): 11.589
- PANK2 gene expression (control 12.767, P 0.010): 5.414
- PINK1 gene expression (control 12.825, P 0.001): 9.640
- SERPINI1 gene expression (control 12.857, P 0.025): 12.924
- NEFL gene expression (control 13.063, P 0.010): 22.943
- TOMM40 gene expression (control 13.758, P 0.001): 15.441
- PMPCA gene expression (control 13.790, P 0.022): 11.969
- PRKAR1B gene expression (control 13.838, P 0.000): 14.889
- NGF gene expression (control 14.274, P 0.012): 1.165
- EIF2B5 gene expression (control 14.483, P 0.017): 12.247
- NEFH gene expression (control 14.777, P 0.018): 13.335
- TBK1 gene expression (control 15.661, P 0.052): 12.891
- SPG21 gene expression (control 15.666, P 0.035): 17.306
- MIR103A2 gene expression (control 15.688, P 0.029): 9.508
- DNAJC5 gene expression (control 16.143, P 0.004): 18.101
- SDHAF1 gene expression (control 16.174, P 0.024): 17.490
- ALDH18A1 gene expression (control 16.206, P 0.012): 18.398
- BIRC6 gene expression (control 16.315, P 0.045): 14.545
- SMCR8 gene expression (control 16.386, P 0.025): 9.923
- SCARB2 gene expression (control 16.783, P 0.011): 20.762
- HCFC1 gene expression (control 17.149, P 0.014): 21.365
- MT-TV gene expression (control 17.283, P 0.000): 9.882
- KCTD7 gene expression (control 18.066, P 0.016): 14.737
- CDK1 gene expression (control 18.213, P 0.001): 31.665
- WDR45 gene expression (control 18.358, P 0.008): 10.730
- ATP6V1A gene expression (control 18.408, P 0.038): 16.105
- ATXN7L3B gene expression (control 19.279, P 0.006): 20.868
- MT-TY gene expression (control 19.436, P 0.034): 14.109
- DNAJB6 gene expression (control 19.482, P 0.010): 13.438
- MT-TN gene expression (control 19.578, P 0.001): 4.546
- DNMT1 gene expression (control 19.641, P 0.019): 19.982
- HRAS gene expression (control 19.713, P 0.000): 18.552
- SNHG1 gene expression (control 19.818, P 0.004): 17.384
- SYP gene expression (control 20.006, P 0.004): 15.060
- BACE1 gene expression (control 20.034, P 0.031): 16.945
- ACHE gene expression (control 20.557, P 0.010): 15.012
- SMARCC1 gene expression (control 21.060, P 0.050): 23.108
- CPT1C gene expression (control 21.622, P 0.000): 23.209
- SETD1A gene expression (control 22.012, P 0.020): 11.489
- LRP10 gene expression (control 23.073, P 0.013): 19.237
- DIAPH1 gene expression (control 23.288, P 0.016): 23.289
- NDUFS4 gene expression (control 23.590, P 0.040): 31.457
- TIA1 gene expression (control 24.343, P 0.029): 18.552
- SORCS1 gene expression (control 24.655, P 0.014): 27.879
- MADD gene expression (control 24.804, P 0.015): 17.028
- MAP1B gene expression (control 25.187, P 0.004): 31.197
- PNPLA6 gene expression (control 25.949, P 0.007): 14.472
- HTRA2 gene expression (control 26.112, P 0.003): 24.427
- FUS gene expression (control 26.563, P 0.006): 23.115
- CHRNA3 gene expression (control 26.776, P 0.015): 35.011
- STARD7 gene expression (control 27.791, P 0.022): 25.690
- RGS4 gene expression (control 28.376, P 0.019): 23.445
- RRM2B gene expression (control 28.427, P 0.027): 15.106
- OTUD5 gene expression (control 29.629, P 0.024): 29.255
- MMADHC gene expression (control 29.814, P 0.009): 28.376
- PHF1 gene expression (control 31.064, P 0.022): 22.592
- XPR1 gene expression (control 31.247, P 0.010): 53.075
- TFG gene expression (control 31.479, P 0.015): 30.210
- DEGS1 gene expression (control 32.375, P 0.003): 28.878
- SQSTM1 gene expression (control 32.378, P 0.007): 38.955
- TCF4 gene expression (control 32.383, P 0.017): 36.707
- PDGFRB gene expression (control 32.930, P 0.001): 20.075
- UNC5C gene expression (control 33.422, P 0.001): 34.253
- COL3A1 gene expression (control 34.958, P 0.008): 29.884
- MT-TQ gene expression (control 37.146, P 0.001): 28.576
- NID1 gene expression (control 38.202, P 0.008): 51.536
- COASY gene expression (control 38.304, P 0.003): 24.487
- TMEM230 gene expression (control 40.014, P 0.054): 35.809
- GRN gene expression (control 43.913, P 0.009): 38.715
- SOD1 gene expression (control 44.413, P 0.023): 54.134
- HNRNPDL gene expression (control 44.506, P 0.001): 58.385
- EIF4G1 gene expression (control 46.194, P 0.005): 47.437
- VCP gene expression (control 49.074, P 0.025): 49.391
- ATP6V1E1 gene expression (control 51.257, P 0.048): 41.488
- GBA2 gene expression (control 53.427, P 0.010): 42.069
- PARK7 gene expression (control 54.907, P 0.006): 62.824
- EEF1A2 gene expression (control 63.840, P 0.016): 77.336
- MT-TP gene expression (control 74.063, P 0.023): 57.524
- U2AF2 gene expression (control 88.738, P 0.014): 53.895
- MT-TS1 gene expression (control 108.757, P 0.004): 75.947
- PRDX1 gene expression (control 137.725, P 0.007): 123.771
- HNRNPA1 gene expression (control 180.363, P 0.003): 274.269
- GNAS gene expression (control 193.754, P 0.003): 202.087
- MT-ND6 gene expression (control 281.366, P 0.001): 64.249
- APP gene expression (control 293.865, P 0.033): 159.632
- PFN1 gene expression (control 386.845, P 0.010): 384.213
- MT-ATP8 gene expression (control 388.214, P 0.017): 298.175
- FTL gene expression (control 423.318, P 0.015): 514.018
- MT-ND5 gene expression (control 1304.948, P 0.012): 1379.984
- MT-ND1 gene expression (control 2654.440, P 0.010): 2177.390
- MT-ND2 gene expression (control 2855.888, P 0.019): 2011.949
- MT-CYB gene expression (control 4523.043, P 0.003): 4140.601
- MT-CO3 gene expression (control 6360.482, P 0.003): 6139.890
- MT-ATP6 gene expression (control 6754.328, P 0.009): 5525.655
- COL4A1 gene expression (first listing, control 3.205, P 0.014): 6.341
- APBB2 gene expression (first listing, control 7.376, P 0.015): 5.038
- MTR gene expression (first listing, control 7.739, P 0.018): 9.723
- DNAJC6 gene expression (first listing, control 11.205, P 0.017): 14.537
- TWNK gene expression (first listing, control 25.053, P 0.010): 15.384
- COL4A1 gene expression (second listing, control 3.206, P 0.014): 4.649
- APBB2 gene expression (second listing, control 7.118, P 0.015): 6.231
- MTR gene expression (second listing, control 8.443, P 0.018): 8.954
- DNAJC6 gene expression (second listing, control 12.142, P 0.017): 12.821
- TWNK gene expression (second listing, control 22.506, P 0.010): 19.867
